Test results published in patent publication US20260125378A2, “Heterocyclic Compounds” (BeOne Medicines I GmbH, priority 2023, published 2026).

How the values were obtained:
[1] = molecular target: T1, Full length DGKζ (in-house protein M1-V929) (Homo sapiens, UniProt Q13574); assay: Biochemical DGK IC50 assay (ADP-Glo, lipid micelle substrate), DGKζ; settings: 1 hour preincubation, 1 hour reaction, room temperature
T1 construct: His (N); TEV site (N); made in house; host or cells: Sf9 insect cells (Bac-to-Bac baculovirus)
T1 sequence (Q13574 1-929 isoform Q13574-4): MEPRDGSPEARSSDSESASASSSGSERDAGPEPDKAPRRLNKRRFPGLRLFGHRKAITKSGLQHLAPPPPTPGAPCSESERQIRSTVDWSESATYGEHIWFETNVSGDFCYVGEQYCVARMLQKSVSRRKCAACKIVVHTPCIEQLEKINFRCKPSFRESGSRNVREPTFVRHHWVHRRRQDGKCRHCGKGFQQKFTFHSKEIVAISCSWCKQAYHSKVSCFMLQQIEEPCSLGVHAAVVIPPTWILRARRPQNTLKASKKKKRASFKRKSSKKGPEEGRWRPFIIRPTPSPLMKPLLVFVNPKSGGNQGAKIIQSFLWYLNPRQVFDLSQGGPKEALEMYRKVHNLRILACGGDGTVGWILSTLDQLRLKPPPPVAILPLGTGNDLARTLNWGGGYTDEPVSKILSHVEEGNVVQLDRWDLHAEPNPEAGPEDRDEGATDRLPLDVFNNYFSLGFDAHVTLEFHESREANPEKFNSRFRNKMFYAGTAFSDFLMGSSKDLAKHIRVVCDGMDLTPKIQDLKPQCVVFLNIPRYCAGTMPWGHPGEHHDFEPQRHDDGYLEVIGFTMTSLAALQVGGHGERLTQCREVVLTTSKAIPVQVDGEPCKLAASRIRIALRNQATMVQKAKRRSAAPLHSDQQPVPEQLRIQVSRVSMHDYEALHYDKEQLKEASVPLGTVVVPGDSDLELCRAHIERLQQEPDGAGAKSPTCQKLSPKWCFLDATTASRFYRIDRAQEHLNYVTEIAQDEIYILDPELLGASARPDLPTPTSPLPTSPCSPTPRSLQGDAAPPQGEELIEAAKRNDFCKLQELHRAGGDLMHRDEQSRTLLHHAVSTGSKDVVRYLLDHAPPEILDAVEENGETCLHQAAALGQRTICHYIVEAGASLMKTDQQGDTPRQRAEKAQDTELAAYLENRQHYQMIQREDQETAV
Method in brief: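 Enzyme: full-length human DGKζ M1-V929, produced in baculovirus-infected Sf9 cells; substrate DAG/PS micelles. Buffer 50 mM HEPES, 10 mM MgCl2, 0.01 mM CaCl2, 0.1 mM Na3VO4.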

[2] = molecular target: T2, Full length DGKα (D21-10BG, SignalChem) (Homo sapiens, UniProt P23743); assay: Biochemical DGK IC50 assay (ADP-Glo, lipid micelle substrate), DGKα; settings: 1 hour preincubation, 1 hour reaction, room temperature
T2 construct: Full length DGKα (D21-10BG, SignalChem); purchased SignalChem D21-10BG
T2 sequence (P23743 whole entry): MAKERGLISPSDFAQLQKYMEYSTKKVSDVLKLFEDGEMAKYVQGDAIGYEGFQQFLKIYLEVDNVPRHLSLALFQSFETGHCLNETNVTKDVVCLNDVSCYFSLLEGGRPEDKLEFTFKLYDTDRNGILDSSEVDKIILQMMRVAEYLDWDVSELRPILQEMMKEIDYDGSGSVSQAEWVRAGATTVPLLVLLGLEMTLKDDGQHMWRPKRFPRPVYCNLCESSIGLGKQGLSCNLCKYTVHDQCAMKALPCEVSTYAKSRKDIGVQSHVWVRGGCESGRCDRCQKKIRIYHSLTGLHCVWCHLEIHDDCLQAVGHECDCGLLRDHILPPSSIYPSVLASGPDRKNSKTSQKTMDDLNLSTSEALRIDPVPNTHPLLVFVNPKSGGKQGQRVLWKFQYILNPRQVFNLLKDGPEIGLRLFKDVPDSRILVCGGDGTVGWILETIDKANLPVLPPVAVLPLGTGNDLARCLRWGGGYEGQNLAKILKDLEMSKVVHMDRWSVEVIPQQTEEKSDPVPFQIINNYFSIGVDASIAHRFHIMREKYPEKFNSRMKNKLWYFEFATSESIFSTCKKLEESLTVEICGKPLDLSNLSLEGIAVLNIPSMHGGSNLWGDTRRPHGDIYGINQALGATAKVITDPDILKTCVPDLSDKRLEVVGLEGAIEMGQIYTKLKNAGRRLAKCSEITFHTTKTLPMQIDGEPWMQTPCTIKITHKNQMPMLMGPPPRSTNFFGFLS
Method in brief: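 ADP-Glo luminescence quantified ADP produced after a 1 h room-temperature reaction of full-length DGKα on DAG/PS micelles, in HEPES buffer containing MgCl2, CaCl2, vanadate, BSA and Tween-20. IC50 values derive from activity inhibition over a compound concentration series.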

IC50 [1] [nM]	IC50 [2] [nM]	Compound
64	48700	CCn1c(CC#N)nc2c(N3C[C@@H](C)N(C(C)c4ccc(C(F)(F)F)c(C)c4)C[C@@H]3C)nc(=O)n(C)c21 (stereo partly drawn) [Compound A137, 2-(6-((2S,5R)-2,5-dimethyl-4-(1-(3-methyl-4-(trifluoromethyl)phenyl)ethyl)piperazin-1-yl)-9-ethyl-3-methyl-2-oxo-3,9-dihydro-2H-purin-8-yl)acetonitrile]
949	> 150000	CCn1c(CC#N)nc2c(N3C[C@@H](C)N(C(C)c4ccc(C)c(C)n4)C[C@@H]3C)nc(=O)n(C)c21 (stereo partly drawn) [Compound A138, 2-(6-((2S,5R)-4-(1-(5,6-dimethylpyridin-2-yl)ethyl)-2,5-dimethylpiperazin-1-yl)-9-ethyl-3-methyl-2-oxo-3,9-dihydro-2H-purin-8-yl)acetonitrile]
2190	120000	CCn1c(CC#N)nc2c(N3C[C@@H](C)N(C(C)c4ccc(CN5CCOCC5)cc4)C[C@@H]3C)nc(=O)n(C)c21 (stereo partly drawn) [Compound A139, 2-(6-((2S,5R)-2,5-dimethyl-4-(1-(4-(morpholinomethyl)phenyl)ethyl)piperazin-1-yl)-9-ethyl-3-methyl-2-oxo-3,9-dihydro-2H-purin-8-yl)acetonitrile]
594	> 150000	CCn1c(CC#N)nc2c(N3C[C@@H](C)N(C(C)c4cccc(N5CC6(COC6)C5)c4)C[C@@H]3C)nc(=O)n(C)c21 (stereo partly drawn) [Compound A140, 2-(6-((2S,5R)-4-(1-(3-(2-oxa-6-azaspiro[3.3]heptan-6-yl)phenyl)ethyl)-2,5-dimethylpiperazin-1-yl)-9-ethyl-3-methyl-2-oxo-3,9-dihydro-2H-purin-8-yl)acetonitrile]
1290	> 150000	CCn1c(CC#N)nc2c(N3C[C@@H](C)N(C(C)c4cccc(N5CCOCC5)c4)C[C@@H]3C)nc(=O)n(C)c21 (stereo partly drawn) [Compound A141, 2-(6-((2S,5R)-2,5-dimethyl-4-(1-(3-morpholinophenyl)ethyl)piperazin-1-yl)-9-ethyl-3-methyl-2-oxo-3,9-dihydro-2H-purin-8-yl)acetonitrile]
6300	> 150000	CCn1c(CC#N)nc2c(N3C[C@@H](C)N(C(C)c4cccc(CN5CCOCC5)c4)C[C@@H]3C)nc(=O)n(C)c21 (stereo partly drawn) [Compound A142, 2-(6-((2S,5R)-2,5-dimethyl-4-(1-(3-(morpholinomethyl)phenyl)ethyl)piperazin-1-yl)-9-ethyl-3-methyl-2-oxo-3,9-dihydro-2H-purin-8-yl)acetonitrile]
> 10000	> 150000	CCn1c(CC#N)nc2c(N3C[C@@H](C)N(C(C)c4ccc(N5CCOCC5)cc4)C[C@@H]3C)nc(=O)n(C)c21 (stereo partly drawn) [Compound A143, 2-(6-((2S,5R)-2,5-dimethyl-4-(1-(4-morpholinophenyl)ethyl)piperazin-1-yl)-9-ethyl-3-methyl-2-oxo-3,9-dihydro-2H-purin-8-yl)acetonitrile]
60	74100	CCn1c(CC#N)nc2c(N3C[C@@H](C)N(C(C)c4ccnc(-c5ccccc5)c4)C[C@@H]3C)nc(=O)n(C)c21 (stereo partly drawn) [Compound A144, 2-(6-((2S,5R)-2,5-dimethyl-4-(1-(2-phenylpyridin-4-yl)ethyl)piperazin-1-yl)-9-ethyl-3-methyl-2-oxo-3,9-dihydro-2H-purin-8-yl)acetonitrile]
480	5620	CC#CC(c1ccc(C)cc1)N1C[C@H](C)N(c2nc(=O)n(C)c3c2nc(CC#N)n3CC)C[C@H]1C (stereo partly drawn) [Compound A145, 2-(6-((2S,5R)-2,5-dimethyl-4-(1-(p-tolyl)but-2-yn-1-yl)piperazin-1-yl)-9-ethyl-3-methyl-2-oxo-3,9-dihydro-2H-purin-8-yl)acetonitrile]
707	2690	CC#CCc1nc2c(N3C[C@@H](CC)N(C(C)c4ccc(C(F)(F)F)cc4)C[C@@H]3CC)nc(=O)n(C)c2n1C (stereo partly drawn) [Compound A152, 8-(but-2-yn-1-yl)-6-((2S,5R)-2,5-diethyl-4-(1-(4-(trifluoromethyl)phenyl)ethyl)piperazin-1-yl)-3,9-dimethyl-3,9-dihydro-2H-purin-2-one]
